Assay results reported in patent US20240415814A1, “PHARMACEUTICAL COMPOSITION COMPRISING 1-(3-CYANO-1-ISOPROPYL-INDOL-5-YL)PYRAZOLE-4-CARBOXYLIC ACID” (LG CHEM, LTD., priority 2021, published 2024).

Assays:
serum uric acid [1] = details: previous results, gout patients; cited from earlier work
serum uric acid [2] = assay: Phase 2 clinical trial (NCT03934099): serum uric acid concentration in gout patients; type: in vivo, human; details: for patients with serum uric acid concentration <4 mg/dL / patients with serum uric acid concentration <5 mg/dL / patients with serum uric acid concentration <6 mg/dL: febuxostat group 40 mg oral
Protocol: A phase 2 clinical trial was conducted to analyze the dosage, TEAEs, and the like when the compound of Formula 1 (1-(3-cyano-1-isopropyl-indol-5-yl)pyrazol-4-carboxylic acid; compound of Example 1) is administered to a gout patient group.
• 1. Written informed consent (signed and dated) provided voluntarily prior to the start of the study. • 2. Male or female aged from 18 to 75 • 3. History or experience of hyperuricemia and gout in accordance with the criteria of the American College of Rheumatology. • 4. Self-reported history of 2 or more gout flare within 12 months prior to screening visit (Visit 1). • 5. Serum uric acid (sUA) levels at Visit 1 of 6.0 mg/dL or more in subjects who were receiving urate lower therapy (ULT) with allopurinol, febuxostat, probenecid, or lesinurad; and sUA levels at Visit 1 of 8.0 mg/dL or more and 12.0 mg/dL or less in subjects who had no history of receiving the ULT or were not receiving the ULT at visit 1. • 6. sUA levels of 8.0 mg/dL or more and 12.0 mg/dL or less at Visit 3. • 7. Body mass index of 42 kg/m^2 or less at screening visit (Visit 1). • 8. Estimated glomerular filtration rate (eGFR) of 60 mL/min/1.73 m^2 or more at screening visit (Visit 1). • 9. Subjects of childbearing potential with a negative pregnancy test result at screening visit (Visit 1). Subjects (female subjects of childbearing potential and male subjects with partners of childbearing potential) consented to use adequate methods of contraception to avoid pregnancy during the study period. • 10. Able to understand the study procedure and relevant risk, and willing to comply with the visit/protocol schedule.
• 1. Presence of secondary hyperuricemia caused by myeloproliferative disorder, organ transplantation, or the like. • 2. Experience of any active acute gout flare within 3 weeks prior to screening visit (Visit 1). • 3. Aspartate aminotransferase or alanine aminotransferase level exceeds 2 times upper limit of normal (ULN) at screening visit (Visit 1). • 4. Creatine kinase level exceeds 2.5 times ULN at screening visit (Visit 1). • 5. Presence of previous hypersensitivity to colchicine. • 6. Patients who have ever prescribed pegloticase within 3 months prior to screening visit (Visit 1). • 7. If a stable dose of drugs (losartan, fibrate, thiazide diuretics, loop diuretics, and acetylsalicylic acid) known to affect sUA levels has not been administered during the past 6 weeks prior to screening visit (Visit 1), acetylsalicylic acid is not allowed to use 325 mg/day or more. • 8. Patients who have ever received systemic corticosteroids for 10 or more consecutive days within 1 month prior to screening visit (Visit 1). • 9. Presence of need or potential availability of systemic immunosuppressive drugs or immunomodulatory therapies (e.g., azathioprine, 6-mercaptopurine, and cyclosporine) • 10. Patients who have received high or moderate doses of cytochrome P450 3A4 inhibitors or P-glycoprotein inhibitors within 14 days prior to screening visit (Visit 1). • 11. History of xanthinuria. • 12. History of rheumatoid arthritis. • 13. Presence of active peptic ulcer disease requiring treatment. • 14. Presence of unstable angina, New York Heart Association class III or IV heart failure, myocardial infarction, stroke, deep vein thrombosis, percutaneous coronary intervention (with or without stent), or coronary artery bypass graft within the past 12 months prior to screening visit (Visit 1); current administration of anticoagulants; or the presence of clinically significant electrocardiogram abnormalities in the investigator's opinion at screening visit (Visit 1). • 15. Presence of uncontrolled hypertension (systolic blood pressure>160 mmHg or diastolic blood pressure>95 mmHg) at screening visit (Visit 1). • 16. History of myositis/myopathy, rhabdomyolysis, Stevens-Johnson syndrome, or toxic epidermal necrolysis. • 17. […]

[3] = febuxostat 40 mg, mild renal function impairment, 12 weeks
[4] = febuxostat 40 mg, normal renal function, 12 weeks
[5] = febuxostat 40 mg, one patient in moderate renal function impairment group, 12 weeks

Structure (SMILES) | patients in the receiving group with serum uric acid concentration of less than 6 mg/dL (serum uric acid [1]) | patients adjusted to serum uric acid <5.0 mg/dL (serum uric acid [2]; [3]) [%] | patients adjusted to serum uric acid <6.0 mg/dL (serum uric acid [2]; [3]) [%] | patients adjusted to serum uric acid <5.0 mg/dL (serum uric acid [2]; [4]) [%] | patients adjusted to serum uric acid <6.0 mg/dL (serum uric acid [2]; [4]) [%] | adjustment of serum uric acid to <5.0 mg/dL (serum uric acid [2]; [5]) | adjustment of serum uric acid to <6.0 mg/dL (serum uric acid [2]; [5]) | patients with serum uric acid concentration <4 mg/dL (serum uric acid [2]; 12 weeks) | patients with serum uric acid concentration <5 mg/dL (serum uric acid [2]; 12 weeks) | patients with serum uric acid concentration <6 mg/dL (serum uric acid [2]; 12 weeks) | patients with serum uric acid concentration <4 mg/dL (serum uric acid [2]; 12 weeks, listed as febuxostat) [%] | patients with serum uric acid concentration <5 mg/dL (serum uric acid [2]; 12 weeks, listed as febuxostat) [%] | patients with serum uric acid concentration <6 mg/dL (serum uric acid [2]; 12 weeks, listed as febuxostat) [%] | degree of reduction in serum uric acid (serum uric acid [2]; febuxostat group 40 mg, FIG. 3) [%]
Oc1ncnc2[nH]ncc12 [allopurinol] | about 40% | – | – | – | – | – | – | – | – | – | – | – | – | –
Cc1nc(-c2ccc(OCC(C)C)c(C#N)c2)sc1C(=O)O [Febuxostat, febuxostat, reference compound] | – | 33 | 67 | 20 | 60 | not adjusted to less than 5.0 mg/dL | not adjusted to less than 6.0 mg/dl | 0% (0/13 people) | 23% (3/13 people) | 54% (7/13 people) | 0 | 23 | 54 | 41.4
